Measured values published in the NIST ThermoML archive (doi:10.1016/j.tca.2010.09.004).
Numbers after ± are expanded uncertainties.

Details: 101.33 kPa, Liquid; for speed of sound: Sing-around technique in a fixed-path interferometer; for mass density: Vibrating tube method

With `CCCCNCCCC` [dibutylamine] the speed of sound (293.15 K) was 1261.2 ± 1 m/s, the mass density (293.15 K) was 759.571 ± 0.2 kg/m3 and the speed of sound (298.15 K) was 1241.3 ± 1 m/s. For the same molecule, the mass density (298.15 K) was 755.457 ± 0.2 kg/m3, the speed of sound (303.15 K) was 1222.5 ± 1 m/s and the mass density (303.15 K) was 751.329 ± 0.21 kg/m3.

Work on `CCCNCCC` [dipropylamine] yielded a speed of sound (293.15 K) of 1209.2 ± 1.4 m/s, a mass density (293.15 K) of 738.188 ± 0.32 kg/m3 and a speed of sound (298.15 K) of 1187.7 ± 1.3 m/s. It also gave a mass density (298.15 K) of 733.683 ± 0.32 kg/m3, a speed of sound (303.15 K) of 1167.1 ± 1.3 m/s and a mass density (303.15 K) of 729.087 ± 0.32 kg/m3.

`CCN(CC)CC` [triethylamine] showed a speed of sound (293.15 K) of 1132.8 ± 1 m/s, a mass density (293.15 K) of 727.515 ± 0.22 kg/m3 and a speed of sound (298.15 K) of 1111.1 ± 1 m/s. For the same molecule, the mass density (298.15 K) was 722.822 ± 0.22 kg/m3, the speed of sound (303.15 K) was 1090.7 ± 1 m/s and the mass density (303.15 K) was 718.201 ± 0.22 kg/m3.

Molecule `CCC(C)=O` [butanone] has a speed of sound (293.15 K) of 1212.3 ± 1 m/s, a mass density (293.15 K) of 805.351 ± 0.19 kg/m3 and a speed of sound (298.15 K) of 1191 ± 1 m/s. It also gave a mass density (298.15 K) of 800.077 ± 0.19 kg/m3, a speed of sound (303.15 K) of 1170.8 ± 1 m/s and a mass density (303.15 K) of 794.779 ± 0.19 kg/m3.
